From US12616200B2, “Herbicidal combinations comprising diflufenican and mesotrione” (priority 2020, dated 2026)

Legend:
Format in all cases: in vivo, Amaranthus palmeri
[1] = system: AMAPA WR-2015-008 (resistant against glyphosate and metribuzin (PSII-inhibitor), PPO-, HPPD- and ALS-inhibitor herbicides); test: Greenhouse pre-emergence herbicidal activity, AMAPA WR-2015-008; conditions: mean of 6
Excerpt: (§1) Test conditions in the greenhouse trial, herbicidal activity against weed plants pre-emergence.
(§2) Seeds of weed plants and crop plants are sown in 3.5 inches (8.89 cm) pots containing a 50:50 mix of Redi-earth (Sun Gro, Bellevue, Washington) and soil at 0.5 to 0.75 inches (1.27 to 1.905 cm) deep. The compounds of the disclosure, formulated in the form of wettable powders (WP) or emulsifiable concentrates (EC), are then applied to the dry soil surface, in the form of an aqueous suspension or emulsion, using a laboratory track sprayer calibrated to deliver 15 gallons per acre (140.31 L/ha). Following the treatment, the pots are placed in a greenhouse and overhead irrigated with 0.25 inches (0.635 cm) for activation and maintained under good growth conditions for the test plants. Visual scoring of the damage to the trial plants takes place after a trial time of 3 weeks in comparison to untreated controls (herbicidal activity in percent (%): 100% activity=plants have died; 0% activity=as control plants). The results are set out in the tables which follow.
AMAPA (WR-2015-008) Amaranthus palmeri (resistant against glyphosate and metribuzin (PSII-inhibitor), PPO-, HPPD- and ALS-inhibitor herbicides).
(§3) Herbicidal activity against different weeds (undesired plants) was calculated as follows: E^C=A+B−A×B/100; E^C=(A+B+C)−(A×B+A×C+B×C)/100+(A×B×C)/10000; • wherein: • A, B, C=respective value in percent of active ingredient A at a dose rate of a g/ha, ingredient B at a dose rate of b g/ha and ingredient C at a dose rate of c g/ha; • E^C=Expected value according to Colby (S. R. Colby; Weeds 15 (1967), 20-22) in % at a dose rate of a+b (+c), each in g/ha; • Δ=Difference (%) between measured value E and expected value E^C (%) (measured value minus expected value). Evaluation: • measured value E is greater than E^C: →synergism (+Δ); • measured value E is equal to E^C: →additive effect; • measured value E is smaller than E^C: →antagonism (−Δ);
(§4) All values in Tables 1 to 15 are mean values of 6 repetitions.

[2] = system: AMAPA WR-2013-043 (resistant against HPPD-inhibitor herbicides); test: Greenhouse pre-emergence herbicidal activity, AMAPA WR-2013-043; conditions: 3 weeks, mean of 6
Excerpt: as §1, §2
AMAPA (WR-2013-043) Amaranthus palmeri (resistant against HPPD-inhibitor herbicides) (Kansas).
as §3, §4

[3] = system: AMAPA WR-2015-002 (resistant against glyphosate, PPO-, HPPD- and ALS-inhibitor herbicides); test: Greenhouse pre-emergence herbicidal activity, AMAPA WR-2015-002; conditions: 3 weeks, mean of 6
Excerpt: as §1, §2
AMAPA (WR-2015-002) Amaranthus palmeri (resistant against glyphosate, PPO-, HPPD- and ALS-inhibitor herbicides) (Tennessee).
as §3, §4

| Compound | Activity [%] against AMAPA WR-2015-008 ([1]; rate 37 g/ha, visual scoring after 3 weeks) [%] | Activity [%] against AMAPA WR-2015-008 ([1]; rate 75 g/ha, 3 weeks) [%] | Activity [%] against AMAPA WR-2013-043 ([2]; rate 75 g/ha) [%] | Activity [%] against AMAPA WR-2013-043 ([2]; rate 150 g/ha) [%] | Activity [%] against AMAPA WR-2015-002 ([3]; rate 75 g/ha) [%] | Activity [%] against AMAPA WR-2015-002 ([3]; rate 150 g/ha) [%] | Activity [%] against AMAPA WR-2015-008 ([1]; rate 150 g/ha, 3 weeks) [%] | Activity [%] against AMAPA WR-2015-008 ([1]; rate 52 g/ha, 3 weeks) [%] | Activity [%] against AMAPA WR-2015-008 ([1]; rate 105 g/ha, 3 weeks) [%] | Activity [%] against AMAPA WR-2013-043 ([2]; rate 52 g/ha) [%] | Activity [%] against AMAPA WR-2013-043 ([2]; rate 105 g/ha) [%] | Activity [%] against AMAPA WR-2015-002 ([3]; rate 105 g/ha) [%] |
| --- | --- | --- | --- | --- | --- | --- | --- | --- | --- | --- | --- | --- |
| O=C(Nc1ccc(F)cc1F)c1cccnc1Oc1cccc(C(F)(F)F)c1 [DFF, 2′,4′-difluoro-2-[3-(trifluoromethyl)phenoxy]pyridine-3-carboxanilide] | 40.8 | 51.7 | 47.5 | 63.3 | 45.8 | 71.7 | – | – | – | – | – | – |
| CSc1nnc(C(C)(C)C)c(=O)n1N [MRB, 4-amino-6-(1,1-dimethylethyl)-3-(methylthio)-1,2,4-triazin-5(4H)-one] | – | 39.2 | – | – | – | – | 45 | – | – | – | – | – |
| CS(=O)(=O)c1ccc(C(=O)C2C(=O)CCCC2=O)c([N+](=O)[O-])c1 [MST, 2-[4-(methylsulfonyl)-2-nitrobenzoyl]cyclohexane-1,3-dione] | – | – | – | – | – | – | – | 57.7 | 85 | 55.0 | 70.5 | 82.5 |
